Where two headings read alike, the source gives them in different places.
Legend:
[1] = cited from earlier work
[2] = Rat brain cassette exposure study; format: in vivo, Sprague Dawley rat; settings: intravenous cassette dosing, samples at 2 min and 30 min
Protocol: The in vivo pharmacokinetic characteristics of the example compounds of the invention were compared directly with the known beta-amyloid specific ligand AZD2184 (Johnson, A. E., et al, Journal of Neurochemistry (2009), Vol. 108, pages 1177-1186). Rat brain exposure to three compounds of the invention and AZD2184 was measured by intravenous cassette dosing three test compound: Example Compound 43, Example Compound 47 and Example Compound 48; and AZD2184 (Novandi Chemistry) (concentration of 0.25 μmol/mL each) using the procedure previously described in Johnson, A. E., et al, Journal of Neurochemistry (2009), Vol. 108, pages 1177-1186. 6 male Sprague Dawley rat were used in the experiments, three rats per time point (2 min and 30 min).

[3] = literature value; cited from earlier work

Row | calculated half-life (t1/2) in rat brain tissue [2] [min] | SMILES | radiochemical purity after exposure to fluorescent light ([1]; at 1 min after exposure) [%] | radiochemical purity after exposure to fluorescent light ([1]; from 10 to 60 min) | t1/2 reported in Table 3 of Johnson, A. E., et al [3] [min]
1 | – | CNc1ccc(/C=C/C=C/c2nc3ccc(O)cc3s2)cn1 [^11C-PBB3] | 77 | approximately 50% | –
2 | 6.65 | CNc1ccc(-c2nc3ccc(O)cc3s2)cn1 [AZD2184, reference compound] | – | – | 6.8
